Test results: ChEMBL document CHEMBL1201862, “PubChem BioAssay data set” (2004)
Active and inactive are the calls of the source.

Key:
[1] = molecular target: Fatty acid synthase (Homo sapiens, UniProt P49327); assay: FAS thioesterase domain inhibitors, dose response, biochemical, kinetic fluorescence intensity (AID 624326); format: functional;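 further: rate of fluorescence rise from hydrolysis of a fluorogenic O-methyl fluorescein ester substrate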
[2] = Luminescence Cell-Based Dose Response HTS to Identify Activators of Luciferase Translation or Activity in H4 […] Cells. [Related pubchem assays: 1829 (Project Summary), 1814 (Primary HTS)]; format: functional
[3] = system: H4; assay: Luminescence Cell-Based Dose Response HTS to Identify Activators of 5'UTR Stem-Loop Driven Prion Protein mRNA Translation in H4 Neuroglioblastoma Cells. [Related pubchem assays: 1829 (Project Summary), 1814 (Primary HTS)]; format: functional; details: Homo sapiens
[4] = Luminescence Cell-Based Dose Confirmation HTS to Identify Activators of 5'UTR Stem-Loop Driven Alpha-Synuclein mRNA Translation in H4 Neuroglioblastoma Cells. [Related pubchem assays: 1829 (Project Summary), 1814 (Primary HTS)]; format: functional
[5] = molecular target: T1, Sentrin-specific protease 7 (Homo sapiens, UniProt Q9BQF6); format: functional;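 further: Luminescence-based dose-response confirmation of ultra-high-throughput screening hits, measuring inhibition of SENP7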
T1 sequence (Q9BQF6 whole entry): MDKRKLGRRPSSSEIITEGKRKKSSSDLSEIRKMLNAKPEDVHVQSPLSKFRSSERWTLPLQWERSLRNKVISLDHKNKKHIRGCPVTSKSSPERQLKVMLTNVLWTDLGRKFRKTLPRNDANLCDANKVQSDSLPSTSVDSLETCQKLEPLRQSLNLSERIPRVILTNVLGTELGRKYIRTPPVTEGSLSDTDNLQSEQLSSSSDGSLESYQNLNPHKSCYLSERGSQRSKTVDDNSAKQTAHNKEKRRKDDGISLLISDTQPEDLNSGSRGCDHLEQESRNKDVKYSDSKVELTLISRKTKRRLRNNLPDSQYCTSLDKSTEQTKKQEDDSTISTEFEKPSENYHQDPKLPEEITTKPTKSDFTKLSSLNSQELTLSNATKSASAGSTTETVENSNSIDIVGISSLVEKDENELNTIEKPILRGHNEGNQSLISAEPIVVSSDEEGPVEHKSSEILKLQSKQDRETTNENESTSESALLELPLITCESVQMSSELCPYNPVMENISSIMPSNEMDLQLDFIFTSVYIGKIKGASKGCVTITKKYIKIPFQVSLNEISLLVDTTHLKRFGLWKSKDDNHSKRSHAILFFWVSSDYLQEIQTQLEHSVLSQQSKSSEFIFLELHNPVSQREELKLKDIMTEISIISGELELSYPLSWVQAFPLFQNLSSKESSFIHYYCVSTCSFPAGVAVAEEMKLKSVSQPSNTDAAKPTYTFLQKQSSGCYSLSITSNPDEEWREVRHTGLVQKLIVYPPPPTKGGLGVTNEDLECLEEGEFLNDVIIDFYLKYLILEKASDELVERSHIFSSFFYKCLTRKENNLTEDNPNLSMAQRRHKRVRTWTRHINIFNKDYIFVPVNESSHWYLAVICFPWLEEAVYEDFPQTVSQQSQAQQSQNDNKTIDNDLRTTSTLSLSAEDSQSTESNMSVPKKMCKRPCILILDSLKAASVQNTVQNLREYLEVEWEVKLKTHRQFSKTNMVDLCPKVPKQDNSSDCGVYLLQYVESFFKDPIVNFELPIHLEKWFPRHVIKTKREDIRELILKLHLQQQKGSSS

[6] = molecular target: T2, Sentrin-specific protease 6 (Homo sapiens, UniProt Q9GZR1); format: functional;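 further: Luminescence-based dose-response confirmatory assay of SENP6 inhibition, following up an ultra-high-throughput screen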
T2 sequence (Q9GZR1 whole entry): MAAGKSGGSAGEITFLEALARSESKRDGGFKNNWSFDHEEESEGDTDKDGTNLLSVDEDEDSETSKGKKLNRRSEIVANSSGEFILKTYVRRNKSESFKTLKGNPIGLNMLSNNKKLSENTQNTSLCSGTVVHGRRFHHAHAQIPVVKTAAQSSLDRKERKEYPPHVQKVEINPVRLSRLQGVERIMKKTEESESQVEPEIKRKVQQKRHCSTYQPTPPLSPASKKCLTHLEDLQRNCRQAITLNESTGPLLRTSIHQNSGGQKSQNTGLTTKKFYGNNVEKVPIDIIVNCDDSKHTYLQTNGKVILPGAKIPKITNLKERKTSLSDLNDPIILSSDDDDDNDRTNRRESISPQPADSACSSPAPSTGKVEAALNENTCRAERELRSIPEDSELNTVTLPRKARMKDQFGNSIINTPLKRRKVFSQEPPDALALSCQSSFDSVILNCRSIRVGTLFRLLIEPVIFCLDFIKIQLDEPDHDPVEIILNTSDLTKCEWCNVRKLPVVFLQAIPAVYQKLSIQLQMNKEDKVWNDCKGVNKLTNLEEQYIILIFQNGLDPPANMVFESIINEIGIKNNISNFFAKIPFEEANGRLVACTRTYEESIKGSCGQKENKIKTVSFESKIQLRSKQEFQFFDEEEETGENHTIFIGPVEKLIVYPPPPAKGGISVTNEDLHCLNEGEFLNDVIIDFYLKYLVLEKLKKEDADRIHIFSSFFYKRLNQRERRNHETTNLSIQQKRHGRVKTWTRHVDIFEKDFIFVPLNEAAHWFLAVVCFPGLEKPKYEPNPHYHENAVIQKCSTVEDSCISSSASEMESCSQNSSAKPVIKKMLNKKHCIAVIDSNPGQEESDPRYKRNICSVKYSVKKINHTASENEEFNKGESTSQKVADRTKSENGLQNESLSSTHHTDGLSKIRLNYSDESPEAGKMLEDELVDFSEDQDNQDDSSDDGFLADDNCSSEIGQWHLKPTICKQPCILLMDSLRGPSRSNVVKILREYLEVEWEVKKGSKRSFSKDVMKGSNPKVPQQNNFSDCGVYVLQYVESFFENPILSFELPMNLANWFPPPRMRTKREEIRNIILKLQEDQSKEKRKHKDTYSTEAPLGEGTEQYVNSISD

[7] = molecular target: T3, Sentrin-specific protease 8 (Homo sapiens, UniProt Q96LD8); format: functional;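 further: luminescence read-out of SENP8 inhibition, dose-response confirmation following an ultra-high-throughput screen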
T3 sequence (Q96LD8 whole entry): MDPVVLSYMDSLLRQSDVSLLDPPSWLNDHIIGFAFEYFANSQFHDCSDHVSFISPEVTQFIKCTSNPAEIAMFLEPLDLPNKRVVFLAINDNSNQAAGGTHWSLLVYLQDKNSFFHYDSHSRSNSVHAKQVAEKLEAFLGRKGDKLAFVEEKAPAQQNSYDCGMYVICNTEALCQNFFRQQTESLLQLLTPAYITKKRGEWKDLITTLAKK

[8] = molecular target: T4, Caspase-3 (Homo sapiens, UniProt P42574); format: functional;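 further: Dose-response selectivity test against caspase-3 for candidate inhibitors of sentrin-specific proteases (SENPs)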
T4 sequence (P42574 whole entry): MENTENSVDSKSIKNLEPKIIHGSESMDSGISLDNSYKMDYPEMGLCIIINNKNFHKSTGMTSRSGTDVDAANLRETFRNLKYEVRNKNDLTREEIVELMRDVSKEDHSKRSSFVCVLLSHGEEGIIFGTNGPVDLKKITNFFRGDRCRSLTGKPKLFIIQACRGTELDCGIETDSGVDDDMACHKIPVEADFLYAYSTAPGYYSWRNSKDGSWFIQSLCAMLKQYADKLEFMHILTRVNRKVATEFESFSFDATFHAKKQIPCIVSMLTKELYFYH

[9] = molecular target: T5, Protein skinhead-1 (Caenorhabditis elegans, UniProt P34707); format: functional
T5 sequence (P34707 whole entry): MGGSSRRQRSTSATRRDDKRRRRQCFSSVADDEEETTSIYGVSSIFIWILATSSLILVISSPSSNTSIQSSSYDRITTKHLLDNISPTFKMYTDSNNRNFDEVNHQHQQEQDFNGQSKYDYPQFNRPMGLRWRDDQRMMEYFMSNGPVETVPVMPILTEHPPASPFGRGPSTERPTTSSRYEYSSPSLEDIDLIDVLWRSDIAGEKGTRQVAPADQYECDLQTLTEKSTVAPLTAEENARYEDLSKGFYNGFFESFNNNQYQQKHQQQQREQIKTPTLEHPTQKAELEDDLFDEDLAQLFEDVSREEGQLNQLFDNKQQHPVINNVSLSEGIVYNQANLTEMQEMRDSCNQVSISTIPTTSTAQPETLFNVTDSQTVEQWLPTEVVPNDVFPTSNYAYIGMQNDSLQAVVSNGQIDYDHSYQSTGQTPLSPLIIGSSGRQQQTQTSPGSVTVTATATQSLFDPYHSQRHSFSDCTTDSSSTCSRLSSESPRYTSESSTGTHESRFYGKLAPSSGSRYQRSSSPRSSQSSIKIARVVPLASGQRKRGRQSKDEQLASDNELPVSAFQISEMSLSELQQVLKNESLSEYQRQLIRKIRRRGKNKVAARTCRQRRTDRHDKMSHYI

[10] = molecular target: T6, Carboxy-terminal domain RNA polymerase II polypeptide A small phosphatase 1 (Homo sapiens, UniProt Q9GZU7); assay: inhibitors of CTDSP1, concentration-response testing, biochemical assay, absorbance-based, actives from ultra-high-throughput screening (AID 540297); format: functional
T6 sequence (Q9GZU7 whole entry): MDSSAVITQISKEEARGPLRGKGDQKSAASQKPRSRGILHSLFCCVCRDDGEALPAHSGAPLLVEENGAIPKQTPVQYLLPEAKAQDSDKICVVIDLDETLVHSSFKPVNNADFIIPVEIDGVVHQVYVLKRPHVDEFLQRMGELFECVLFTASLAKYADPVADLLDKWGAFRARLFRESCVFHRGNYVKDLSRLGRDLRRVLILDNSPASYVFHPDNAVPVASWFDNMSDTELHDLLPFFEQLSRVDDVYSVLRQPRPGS

[11] = molecular target: T7, Small ubiquitin-related modifier 1 (Homo sapiens, UniProt P63165); assay: inhibitors of SUMO1 peptide binding, dose response, biochemical, fluorescence polarization, uHTS hits (AID 624382); format: functional; details: read-out: IC50_Mean
T7 sequence (P63165 whole entry): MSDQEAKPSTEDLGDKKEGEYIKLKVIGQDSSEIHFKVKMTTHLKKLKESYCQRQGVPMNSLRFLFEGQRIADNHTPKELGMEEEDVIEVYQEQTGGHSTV

[12] = system: INS1; assay: beta cell apoptosis inhibitors, cytokine rescue, dose response, luminescence, retest (AID 449756); format: functional, cell-based; details: Rattus norvegicus;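 further: cell death triggered by IL-1 beta plus TNF-alpha plus IFN-gamma mixture; protective hits raise ATP signal compared with cytokine alone wells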
[13] = molecular target: T7, Small ubiquitin-related modifier 1; assay: inhibitors of SUMO1 partner interactions, dose response, biochemical, FRET (AID 624383); format: functional; details: read-out: IC50_Mean
[14] = molecular target: Induced myeloid leukemia cell differentiation protein Mcl-1 (Homo sapiens, UniProt Q07820); format: functional
Sequence of Induced myeloid leukemia cell differentiation protein Mcl-1 (Q07820 whole entry): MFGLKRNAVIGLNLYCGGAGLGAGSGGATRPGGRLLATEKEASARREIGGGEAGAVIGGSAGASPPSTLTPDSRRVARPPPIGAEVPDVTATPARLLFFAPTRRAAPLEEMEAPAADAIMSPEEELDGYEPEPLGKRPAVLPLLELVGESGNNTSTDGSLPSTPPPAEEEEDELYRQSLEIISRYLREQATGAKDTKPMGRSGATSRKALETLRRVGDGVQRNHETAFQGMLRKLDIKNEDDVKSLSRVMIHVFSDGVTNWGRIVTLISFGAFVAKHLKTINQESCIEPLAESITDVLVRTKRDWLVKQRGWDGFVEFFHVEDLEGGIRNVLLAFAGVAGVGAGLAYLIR

Sequence of Fatty acid synthase (P49327 whole entry, the tested form may be a part): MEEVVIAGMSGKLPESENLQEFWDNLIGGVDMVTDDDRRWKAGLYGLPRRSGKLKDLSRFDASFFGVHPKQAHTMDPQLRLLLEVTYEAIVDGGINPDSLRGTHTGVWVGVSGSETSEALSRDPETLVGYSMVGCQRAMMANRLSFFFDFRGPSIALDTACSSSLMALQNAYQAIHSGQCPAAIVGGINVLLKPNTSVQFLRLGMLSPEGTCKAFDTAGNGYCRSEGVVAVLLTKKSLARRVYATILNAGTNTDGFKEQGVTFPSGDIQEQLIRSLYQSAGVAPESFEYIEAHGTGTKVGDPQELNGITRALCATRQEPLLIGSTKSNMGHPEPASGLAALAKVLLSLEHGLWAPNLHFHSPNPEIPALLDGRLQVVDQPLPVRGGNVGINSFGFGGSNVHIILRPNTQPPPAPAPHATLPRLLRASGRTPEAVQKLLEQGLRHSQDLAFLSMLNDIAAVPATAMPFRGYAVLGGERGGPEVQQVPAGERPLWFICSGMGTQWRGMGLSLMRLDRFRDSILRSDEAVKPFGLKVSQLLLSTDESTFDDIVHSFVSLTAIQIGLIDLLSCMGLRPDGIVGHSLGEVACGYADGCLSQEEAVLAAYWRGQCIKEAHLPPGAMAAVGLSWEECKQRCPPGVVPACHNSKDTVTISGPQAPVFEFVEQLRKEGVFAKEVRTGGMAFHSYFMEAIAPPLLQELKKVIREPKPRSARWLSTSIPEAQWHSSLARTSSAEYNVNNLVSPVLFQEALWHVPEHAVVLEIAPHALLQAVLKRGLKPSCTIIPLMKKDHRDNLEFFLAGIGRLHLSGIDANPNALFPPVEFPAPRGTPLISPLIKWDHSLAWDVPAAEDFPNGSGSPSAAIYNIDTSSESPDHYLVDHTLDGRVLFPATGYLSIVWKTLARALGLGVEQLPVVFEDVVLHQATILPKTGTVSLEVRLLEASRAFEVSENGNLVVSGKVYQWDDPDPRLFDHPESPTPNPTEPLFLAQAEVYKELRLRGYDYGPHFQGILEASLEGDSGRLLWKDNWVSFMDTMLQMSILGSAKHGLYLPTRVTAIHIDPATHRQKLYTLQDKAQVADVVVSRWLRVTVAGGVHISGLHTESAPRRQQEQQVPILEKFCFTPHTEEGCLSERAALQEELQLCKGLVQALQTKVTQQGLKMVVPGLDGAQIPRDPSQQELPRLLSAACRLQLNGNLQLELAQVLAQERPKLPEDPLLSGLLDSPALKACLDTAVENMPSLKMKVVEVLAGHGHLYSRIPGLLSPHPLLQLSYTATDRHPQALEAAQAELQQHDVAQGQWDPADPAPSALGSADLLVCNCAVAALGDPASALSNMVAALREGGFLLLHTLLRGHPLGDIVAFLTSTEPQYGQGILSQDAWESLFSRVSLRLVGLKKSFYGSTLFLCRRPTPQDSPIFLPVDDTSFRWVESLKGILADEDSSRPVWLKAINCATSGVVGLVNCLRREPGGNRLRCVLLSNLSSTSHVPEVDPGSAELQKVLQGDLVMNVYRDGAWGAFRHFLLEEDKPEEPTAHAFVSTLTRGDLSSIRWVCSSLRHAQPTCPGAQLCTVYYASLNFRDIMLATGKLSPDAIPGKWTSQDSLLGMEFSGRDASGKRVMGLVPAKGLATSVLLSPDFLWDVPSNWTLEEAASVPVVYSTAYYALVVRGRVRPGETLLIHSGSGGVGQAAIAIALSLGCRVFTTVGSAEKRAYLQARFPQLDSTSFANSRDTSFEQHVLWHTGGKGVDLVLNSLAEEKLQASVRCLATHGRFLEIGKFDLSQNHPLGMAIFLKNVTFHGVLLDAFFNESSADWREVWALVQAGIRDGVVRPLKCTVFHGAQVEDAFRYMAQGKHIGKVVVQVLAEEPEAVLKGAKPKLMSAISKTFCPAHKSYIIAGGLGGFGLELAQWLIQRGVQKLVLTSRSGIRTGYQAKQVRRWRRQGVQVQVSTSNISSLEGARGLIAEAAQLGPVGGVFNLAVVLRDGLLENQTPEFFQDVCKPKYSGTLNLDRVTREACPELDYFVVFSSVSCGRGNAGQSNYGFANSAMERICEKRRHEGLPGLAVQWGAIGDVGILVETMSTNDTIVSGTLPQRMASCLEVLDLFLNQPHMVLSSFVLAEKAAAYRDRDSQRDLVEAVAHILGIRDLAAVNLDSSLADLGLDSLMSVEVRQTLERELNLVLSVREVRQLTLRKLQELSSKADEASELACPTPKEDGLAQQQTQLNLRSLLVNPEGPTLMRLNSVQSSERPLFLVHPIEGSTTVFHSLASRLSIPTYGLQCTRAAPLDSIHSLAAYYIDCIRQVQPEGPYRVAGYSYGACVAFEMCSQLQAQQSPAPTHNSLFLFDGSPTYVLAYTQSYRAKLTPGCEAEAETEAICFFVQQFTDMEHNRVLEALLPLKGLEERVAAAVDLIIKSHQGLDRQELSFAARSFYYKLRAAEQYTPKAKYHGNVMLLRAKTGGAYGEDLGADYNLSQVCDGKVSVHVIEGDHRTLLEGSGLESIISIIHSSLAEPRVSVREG

SMILES	IC50 [5]	IC50 [6]	IC50 [7]	IC50 [8]	IC50 [10]	further results
O=C(OCc1ccc([N+](=O)[O-])cc1)c1cc([N+](=O)[O-])ccc1N1CCOCC1	–	–	–	–	–	IC50 [1]: 2.73 µM (active)
O=C(Nc1nccs1)c1ccc(-c2ccccc2Cl)o1	4.57 µM (active)	> 100 µM (inactive)	25.1 µM (active)	22 µM (active)	–	EC50 [2]: 106 µM (active); EC50 [3]: 23.5 µM (inconclusive); EC50 [4]: 27 µM (active); IC50 [9]: > 100 µM (inactive)
O=C(CCCc1ccccc1)c1ccccc1	7.31 µM (active)	20.4 µM (active)	54.9 µM (active)	13.5 µM (active)	–	–
O=C(CCN1C(=O)S/C(=C\c2ccc(Cl)cc2)C1=O)Nc1ccc(C(=O)O)cc1	–	–	–	–	6.17 µM (active)	–
O=C(Nc1ccc(Nc2ccncc2)cc1)c1ccc(Nc2ccnc3ccc([N+](=O)[O-])cc23)cc1[N+](=O)[O-]	–	–	–	–	–	IC50 [11]: > 66.6 µM (inactive); AC50 [12]: 10.5 µM (active); IC50 [13]: 10.3 µM (active); IC50 [14]: 2.46 µM (active)
CCc1ccc(OCC(=O)NNC(=O)c2ccc(NC(=O)C3CC3)cc2)cc1	–	–	–	–	10.5 µM (active)	–
